Data on seven compounds can be found in patent US20260176249A1, “PROTEIN KINASE INHIBITOR, PREPARATION METHOD THEREFOR, AND APPLICATION THEREOF” (SHANDONG LUYE PHARMACEUTICAL CO., LTD., priority 2021, published 2026).

The structures appear in SMILES notation. Read-outs that look alike come from different tables or passages of the source.

The test system of one series is HCT116 cells. As to the kind of experiment: Inhibitory activity on HCT116 cell proliferation (ATPlite). Type of series: cell-based. The following applies: Homo sapiens, HCT-116, HCT116 cells, 72 h. The method, boiled down: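 HCT116 cells seeded at 720 cells/well in RPMI1640 + 10% FBS and grown overnight at 37 °C, 5% CO2, then exposed to compound for 72 h. Viability read by ATPlite 1step luminescence; IC50 calculated from inhibition-rate curves.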
In general terms: In ATP-based viability assays light output follows the ATP content of the culture.

Series [1] can be described thus: Metabolic stability in rat liver microsomes. As to conditions: for CLint scaled at 1 µM / half-life at 1 µM / microsomal CLint at 1 µM: rat; for CLint scaled at 1 µM / half-life at 1 µM: pH 7.4; for microsomal CLint at 1 µM: pH 7.4, read-out: CLint(mic). In kind it is in vitro ADME. The method, boiled down:
(§1)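 Compounds incubated at 37 °C with mouse, rat or human liver microsomes in 100 mM phosphate buffer pH 7.4, started with NADPH/MgCl2 and sampled at 0–60 min. Parent remaining quantified by LC-MS. T1/2 and CLint(mic) derived from depletion, scaled to CLint using 45 mg protein/g liver and species liver/body weight ratios.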
A general note: Liver microsomes are a subcellular fraction often used to study metabolism.

Series [2] is described as follows: Metabolic stability in mouse liver microsomes. In kind it is in vitro ADME. The following applies: for CLint scaled at 1 µM / half-life at 1 µM / microsomal CLint at 1 µM: mouse; for CLint scaled at 1 µM / half-life at 1 µM: pH 7.4; for microsomal CLint at 1 µM: pH 7.4, read-out: CLint(mic). In a few lines:
as §1

The target in another series is T1, PLK1 kinase (Homo sapiens, UniProt P53350).
T1 construct: purchased Carnabio (Carna Biosciences) 05-157
As to the kind of experiment: Inhibitory activity on PLK1 kinase. Type of series: biochemical. The following applies: for IC50: PLK1 kinase, highest concentration 1 μM, 10 points, read-out: IC50; for Imax: maximum effect caused by the compound at the test concentration. The method, boiled down:
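TR-FRET kinase assay: PLK1 enzyme premixed with peptide substrate, reaction started by ATP addition and run at 23 °C. Detection reagent then added, 60 min at 23 °C, EnVision read. Compounds tested as 10-point 1:3 series from 1 μM top concentration, duplicate wells; curves fitted.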

[3] abbreviates: read-out: half inhibitory concentration.

The term CLint scaled denotes the capacity of the preparation to metabolise the compound, expressed as a volume cleared per time. Low values mean slow turnover, high ones rapid turnover. One may read the half-life as the time in which the quantity being followed falls by half. The low end stands for fast loss, the high end for slow loss.

T1 sequence (P53350 whole entry): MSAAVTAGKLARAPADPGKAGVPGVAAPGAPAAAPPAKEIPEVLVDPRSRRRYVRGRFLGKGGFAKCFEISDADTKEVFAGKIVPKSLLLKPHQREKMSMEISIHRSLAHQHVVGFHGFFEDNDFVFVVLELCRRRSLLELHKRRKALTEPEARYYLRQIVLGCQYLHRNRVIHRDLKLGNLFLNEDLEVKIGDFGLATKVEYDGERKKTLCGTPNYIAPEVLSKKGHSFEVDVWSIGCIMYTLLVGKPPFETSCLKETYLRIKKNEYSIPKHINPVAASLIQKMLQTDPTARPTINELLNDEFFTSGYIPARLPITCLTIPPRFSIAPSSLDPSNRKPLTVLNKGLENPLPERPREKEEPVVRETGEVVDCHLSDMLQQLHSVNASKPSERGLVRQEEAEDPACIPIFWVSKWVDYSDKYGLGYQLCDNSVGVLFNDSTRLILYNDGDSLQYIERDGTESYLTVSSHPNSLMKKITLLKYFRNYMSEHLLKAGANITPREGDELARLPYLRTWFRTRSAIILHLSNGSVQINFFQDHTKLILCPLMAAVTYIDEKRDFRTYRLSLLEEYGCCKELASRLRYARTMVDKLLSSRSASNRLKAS

As for `CN1CCN(c2ccc(OC(F)(F)F)c(Nc3ncc4c(n3)-c3c(c(C(=O)NN)nn3CCO)CC4)c2)CC1` [Compound 13], the IC50 in the series with HCT116 cells (read-out: IC50) was 0.831 µM. In addition, in series [1], the “60 min remaining amount” value is 27.8%, the Clearance rate result is “Medium”, the CLint scaled at 1 µM is 74.5 mL/min/kg and the half-life at 1 µM came to 33.5 min. Further, the microsomal CLint at 1 µM in series [1] worked out at 41.4 µL/min/mg. Moreover, in series [2], the “60 min remaining amount” value is recorded as 38.6%, the Clearance rate result is “Medium”, the CLint scaled at 1 µM is 123 mL/min/kg and the half-life at 1 µM turned out to be 44.7 min. The microsomal CLint at 1 µM in series [2] stood at 31 µL/min/mg. For the same compound, on PLK1 kinase, the IC50 came out at 0.00249 µM and the Imax was found to be 99.41%.

In the case of `Cn1nc(C(N)=O)c2ccc3cnc(Nc4cc(N5CCN(CCO)CC5)ccc4OC(F)(F)F)nc3c21` [Compound 16], the IC50 with HCT116 cells (read-out: IC50) turned out to be 0.502 µM. In addition, in series [1], the “60 min remaining amount” value is given as 21.6%, the Clearance rate entry is “Medium”, the CLint scaled at 1 µM is 90 mL/min/kg and the half-life at 1 µM was 27.7 min. For the same compound, the microsomal CLint at 1 µM in series [1] was determined as 50.5 µL/min/mg. In series [2], the “60 min remaining amount” value is 24.6%, the Clearance rate entry is “Medium”, the CLint scaled at 1 µM stood at 184 mL/min/kg and the half-life at 1 µM turned out to be 29.9 min. Further, the microsomal CLint at 1 µM in series [2] was determined as 46.4 µL/min/mg. In addition, at PLK1 kinase, the IC50 worked out at 0.00477 µM and the Imax came to 98.76%.

For `CN1CCN(c2ccc(OC(F)(F)F)c(Nc3ncc4c(n3)-c3c(c(C(N)=O)cn3CCO)CC4)c2)CC1` [Compound 2], in the series on HCT116 cells (read-out: IC50), the IC50 was 0.027 µM. In the series with HCT116 cells (setting [3]), the IC50 amounted to 0.027 µM. In series [1], the “60 min remaining amount” value is reported as 17.0%, the Clearance rate entry is “Medium”, the CLint scaled at 1 µM stood at 103 mL/min/kg and the half-life at 1 µM was found to be 24.3 min. Moreover, in series [1], the microsomal CLint at 1 µM is 57 µL/min/mg. Further, in series [2], the “60 min remaining amount” value turned out to be 26.7%, the Clearance rate result was “Medium”, the CLint scaled at 1 µM was 175 mL/min/kg and the half-life at 1 µM turned out to be 31.4 min. Also, the microsomal CLint at 1 µM in series [2] turned out to be 44.2 µL/min/mg. In addition, at PLK1 kinase, the IC50 was 0.00099 µM and the Imax is 99.81%.

For `CN1CCN(c2ccc(OCC(F)(F)F)c(Nc3ncc4c(n3)-c3c(c(C(N)=O)nn3CCO)CC4)c2)CC1` [Compound 24], the IC50 in the series with HCT116 cells (read-out: IC50) came to 0.032 µM. Further, in the series with HCT116 cells (setting [3]), the IC50 was 0.032 µM. For the same compound, in series [1], the “60 min remaining amount” value is 47.9%, the Clearance rate entry is reported as “Medium”, the CLint scaled at 1 µM worked out at 46.4 mL/min/kg and the half-life at 1 µM was 53.7 min. The microsomal CLint at 1 µM in series [1] turned out to be 25.8 µL/min/mg. In series [2], the “60 min remaining amount” value came to 58.2%, the Clearance rate entry is “Medium”, the CLint scaled at 1 µM is 74.4 mL/min/kg and the half-life at 1 µM stood at 73.7 min. The microsomal CLint at 1 µM in series [2] was found to be 18.8 µL/min/mg. Further, on PLK1 kinase, the IC50 came to 0.00121 µM and the Imax worked out at 99.48%.

On to `CN1CCN(c2ccc(OC(F)(F)F)c(Nc3ncc4c(n3)-c3c(c(C(N)=O)nn3CCO)CC4)c2)CC1` [Onvansertib, reference compound], for which the IC50 in the series on HCT116 cells (read-out: IC50) came to 0.042 µM. In addition, in series [1], the “60 min remaining amount” value is on record as 15.7%, the Clearance rate entry was “Medium”, the CLint scaled at 1 µM was found to be 110 mL/min/kg and the half-life at 1 µM stood at 22.7 min. In addition, the microsomal CLint at 1 µM in series [1] was determined as 61 µL/min/mg. In series [2], the “60 min remaining amount” value came out at 21.5%, the Clearance rate entry is reported as “Medium”, the CLint scaled at 1 µM worked out at 202 mL/min/kg and the half-life at 1 µM is 27.2 min. Also, the microsomal CLint at 1 µM in series [2] was found to be 51 µL/min/mg. The compound also showed an Imax at PLK1 kinase of 100.02%.

For `CN1CCN(c2ccc(OC(F)(F)F)c(Nc3ncc4c(n3)-c3c(c(C(N)=O)nn3CCC#N)CC4)c2)CC1` [Compound 4], the IC50 in the series on HCT116 cells (read-out: IC50) amounted to 0.332 µM. Moreover, in series [1], the “60 min remaining amount” value was 2.76%, the Clearance rate result was “High”, the CLint scaled at 1 µM stood at 211 mL/min/kg and the half-life at 1 µM was found to be 11.8 min. For the same compound, in series [1], the microsomal CLint at 1 µM was determined as 117 µL/min/mg. Moreover, in series [2], the “60 min remaining amount” value came out at 1.33%, the Clearance rate entry is on record as “High”, the CLint scaled at 1 µM amounted to 1230 mL/min/kg and the half-life at 1 µM was 4.47 min. The microsomal CLint at 1 µM in series [2] is 310 µL/min/mg. At PLK1 kinase, the IC50 came out at 0.00164 µM and the Imax was 99.51%.

On to `Cn1nc(C(N)=O)c2c1-c1nc(Nc3cc(N4CCN(CCO)CC4)ccc3OC(F)(F)F)ncc1CC2` [Compound 20], for which, in the series with HCT116 cells (read-out: IC50), the IC50 was 0.143 µM. For the same compound, in series [1], the “60 min remaining amount” value was determined as 21.6%, the Clearance rate result was “Medium”, the CLint scaled at 1 µM turned out to be 95.4 mL/min/kg and the half-life at 1 µM was determined as 26.2 min. Besides, in series [1], the microsomal CLint at 1 µM turned out to be 53 µL/min/mg. Moreover, in series [2], the “60 min remaining amount” value is 15.9%, the Clearance rate result is given as “High”, the CLint scaled at 1 µM is 238 mL/min/kg and the half-life at 1 µM was found to be 23.1 min. The microsomal CLint at 1 µM in series [2] was 60 µL/min/mg. In addition, at PLK1 kinase, the IC50 amounted to 0.00128 µM and the Imax came to 99.29%.
